ChEMBL document CHEMBL4834472 (J Med Chem, 2021)
The source made the active and inactive calls. No cut-off for these calls is given here.

Key:
CCRF-CEM = experiment: Antiproliferative activity against human CCRF-CEM cells assessed as cell death measured after 72 hrs by resazurin dye based assay; type: functional
K562 = experiment: cells; settings: Homo sapiens, K562, 72 h
Description: Antiproliferative activity against human K562 cells assessed as cell death measured after 72 hrs by resazurin dye based assay

CDK2/Cyclin A1 = CDK2/Cyclin A1 (Homo sapiens, UniProt P24941); type: protein-complex assay
Description: Inhibition of CDK2/Cyclin A1 (unknown origin) at 1 uM using histone H1 as substrate preincubated for 20 mins followed by 33P-ATP addition and measured after 2 hrs by filter binding method

MOLM-14 [1] = experiment: Antiproliferative activity against human MOLM-14 cells assessed as cell death measured after 72 hrs by resazurin dye based assay; type: functional; settings: MOLM-14, 72 h
MV4-11 [2] = experiment: cells; settings: Homo sapiens, MV4-11, 72 h
Description: Antiproliferative activity against human MV4-11 cells assessed as cell death measured after 72 hrs by resazurin dye based assay

[3] = target: Receptor-type tyrosine-protein kinase FLT3 (Homo sapiens) (UniProt P36888); experiment: Inhibition of FLT3 in human MV4-11 cells assessed as STAT5 phosphorylation at Y694 at 20 to 100 nM incubated for 1 hrs by Western blot analysis; type: cell-based; settings: dose 20-100 nM
MOLM-13 = experiment: Antiproliferative activity against human MOLM-13 cells assessed as cell death measured after 72 hrs by resazurin dye based assay; type: functional; settings: MOLM-13, 72 h
CDK9/cyclin T1 = CDK9/cyclin T1 (Homo sapiens, UniProt P50750); experiment: Inhibition of CDK9/cyclin T1 (unknown origin) in presence of [32P]gammaATP by image analyser; type: protein-complex assay
[4] = target: Receptor-type tyrosine-protein kinase FLT3 (Homo sapiens) (UniProt P36888); experiment: Inhibition of FLT3 autophosphorylation in human MV4-11 cells at 20 to 100 nM incubated for 1 hrs by Western blot analysis; type: cell-based; settings: dose 20-100 nM
BaF3 [5] = experiment: Antiproliferative activity against mouse BaF3 cells assessed as cell death measured after 72 hrs by resazurin dye based assay; type: functional; settings: BaF3, 72 h
[6] = target: T1, Receptor-type tyrosine-protein kinase FLT3 (Homo sapiens, UniProt P36888); experiment: Inhibition of wild type FLT3 (unknown origin) using AGLT peptide substrate in presence of [32P]gammaATP by image analyser
T1 sequence (P36888 whole entry): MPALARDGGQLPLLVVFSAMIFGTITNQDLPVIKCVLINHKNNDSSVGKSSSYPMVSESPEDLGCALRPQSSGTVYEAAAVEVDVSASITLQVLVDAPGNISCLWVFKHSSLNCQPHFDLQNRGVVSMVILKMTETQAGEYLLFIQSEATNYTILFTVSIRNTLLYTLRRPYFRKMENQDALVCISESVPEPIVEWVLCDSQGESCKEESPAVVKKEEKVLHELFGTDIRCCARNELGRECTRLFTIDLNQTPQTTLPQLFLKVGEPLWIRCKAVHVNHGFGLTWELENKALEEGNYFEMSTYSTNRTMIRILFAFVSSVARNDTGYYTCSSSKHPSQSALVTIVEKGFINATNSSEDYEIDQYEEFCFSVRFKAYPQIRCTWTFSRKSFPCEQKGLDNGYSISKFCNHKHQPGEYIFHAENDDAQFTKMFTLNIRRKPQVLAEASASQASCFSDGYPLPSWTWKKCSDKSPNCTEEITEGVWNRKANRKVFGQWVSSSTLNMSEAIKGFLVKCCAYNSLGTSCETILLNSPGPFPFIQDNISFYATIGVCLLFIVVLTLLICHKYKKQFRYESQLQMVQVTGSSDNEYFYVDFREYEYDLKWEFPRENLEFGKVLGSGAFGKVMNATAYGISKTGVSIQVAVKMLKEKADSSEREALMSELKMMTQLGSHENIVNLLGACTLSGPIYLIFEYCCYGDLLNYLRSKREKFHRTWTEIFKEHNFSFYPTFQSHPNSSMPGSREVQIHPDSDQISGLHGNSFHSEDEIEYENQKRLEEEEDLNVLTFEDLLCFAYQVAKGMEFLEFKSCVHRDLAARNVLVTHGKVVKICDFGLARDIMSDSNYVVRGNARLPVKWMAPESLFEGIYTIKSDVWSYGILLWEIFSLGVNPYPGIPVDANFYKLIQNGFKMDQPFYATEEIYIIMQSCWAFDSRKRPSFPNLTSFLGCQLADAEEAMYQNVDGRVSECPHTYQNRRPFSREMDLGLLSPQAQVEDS

MV4-11 [7] = experiment: Induction of apoptosis in human MV4-11 cells assessed as caspase 7 activation using fluorescent substrate Ac-DEVD-AMC at 100 nM incubated for 24 hrs by Western blot analysis; type: functional, cell-based
MV4-11 [8] = experiment: Induction of apoptosis in human MV4-11 cells assessed as increase in cleaved PARP1 level at 100 nM incubated for 24 hrs by Western blot analysis; type: functional, cell-based
MV4-11 [9] = experiment: Induction of apoptosis in human MV4-11 cells assessed as effect on Bcl2 level at 100 nM incubated for 24 hrs by Western blot analysis; type: functional, cell-based
[10] = target: Receptor-type tyrosine-protein kinase FLT3 (Homo sapiens, UniProt P36888, ITD)
SEM cells = experiment: Antiproliferative activity against human SEM cells assessed as cell death measured after 72 hrs by resazurin dye based assay; type: functional
[11] = target: Cyclin-dependent kinase 4/cyclin D1 (Homo sapiens, UniProt P11802); experiment: Inhibition of CDK4/cyclin D1 (unknown origin) in presence of [32P]gammaATP by image analyser; type: protein-complex assay
[12] = target: Cyclin-dependent kinase 1/cyclin B1 (Homo sapiens, UniProt P06493); experiment: Inhibition of CDK1/cyclin B1 (unknown origin) in presence of [32P]gammaATP by image analyser; type: protein-complex assay
U-937 = experiment: Antiproliferative activity against human U-937 cells assessed as cell death measured after 72 hrs by resazurin dye based assay; type: functional; settings: U-937, 72 h
[13] = target: Receptor-type tyrosine-protein kinase FLT3 (Homo sapiens) (UniProt P36888); experiment: Inhibition of FLT3 in human MV4-11 cells assessed as ERK1/2 phosphorylation at 20 to 100 nM incubated for 1 hrs by Western blot analysis; type: cell-based; settings: dose 20-100 nM
MV4-11 [14] = experiment: Induction of apoptosis in human MV4-11 cells assessed as decrease in MCL1 level at 100 nM incubated for 24 hrs by Western blot analysis; type: functional, cell-based
[15] = target: Cyclin-dependent kinase 2/cyclin E1 (Homo sapiens, UniProt P24941); experiment: Inhibition of CDK2/cyclin E1 (unknown origin) in presence of [32P]gammaATP by image analyser; type: protein-complex assay
MV4-11 [16] = experiment: Induction of apoptosis in human MV4-11 cells assessed as caspase 3 activation using fluorescent substrate Ac-DEVD-AMC at 100 nM incubated for 24 hrs by Western blot analysis; type: functional, cell-based
MOLM-14 [17] = experiment: Antiproliferative activity against human MOLM-14 cells harboring D835Y mutant assessed as cell death measured after 72 hrs by resazurin dye based assay; type: functional; settings: MOLM-14, 72 h
THP-1 = experiment: Antiproliferative activity against human THP-1 cells assessed as cell death measured after 72 hrs by resazurin dye based assay; type: functional; settings: THP-1, 72 h
MOLM-14 [18] = experiment: Antiproliferative activity against human MOLM-14 cells harboring F691L mutant assessed as cell death measured after 72 hrs by resazurin dye based assay; type: functional; settings: MOLM-14, 72 h
BaF3 [19] = experiment: Antiproliferative activity against mouse BaF3 cells harboring FLt3 ITD mutant assessed as cell death measured after 72 hrs by resazurin dye based assay; type: functional; settings: BaF3, 72 h
CDK2/Cyclin A2 = CDK2/Cyclin A2 (Homo sapiens, UniProt P24941); experiment: Inhibition of CDK2/cyclin A2 (unknown origin) in presence of [32P]gammaATP by image analyser; type: protein-complex assay

Sequence of Cyclin-dependent kinase 4/cyclin D1 (P11802 whole entry): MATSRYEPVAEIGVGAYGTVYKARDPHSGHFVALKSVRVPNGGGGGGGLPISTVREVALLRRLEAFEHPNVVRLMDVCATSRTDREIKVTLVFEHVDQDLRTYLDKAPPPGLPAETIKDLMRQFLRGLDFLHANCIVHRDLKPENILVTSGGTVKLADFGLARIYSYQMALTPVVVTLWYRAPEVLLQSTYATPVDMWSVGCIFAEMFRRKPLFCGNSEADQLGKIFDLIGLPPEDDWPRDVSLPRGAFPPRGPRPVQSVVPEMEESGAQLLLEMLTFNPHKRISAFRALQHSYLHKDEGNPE
Sequence of Cyclin-dependent kinase 4/cyclin D1 (P24385 whole entry, further chain): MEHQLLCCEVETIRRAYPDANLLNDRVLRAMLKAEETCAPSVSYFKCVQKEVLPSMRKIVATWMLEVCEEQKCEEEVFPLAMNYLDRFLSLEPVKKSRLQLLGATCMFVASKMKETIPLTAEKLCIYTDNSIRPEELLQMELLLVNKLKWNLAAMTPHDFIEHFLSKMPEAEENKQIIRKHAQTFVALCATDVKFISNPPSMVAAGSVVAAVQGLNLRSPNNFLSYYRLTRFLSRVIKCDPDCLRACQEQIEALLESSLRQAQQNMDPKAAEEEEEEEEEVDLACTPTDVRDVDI
Sequence of Cyclin-dependent kinase 1/cyclin B1 (P06493 whole entry): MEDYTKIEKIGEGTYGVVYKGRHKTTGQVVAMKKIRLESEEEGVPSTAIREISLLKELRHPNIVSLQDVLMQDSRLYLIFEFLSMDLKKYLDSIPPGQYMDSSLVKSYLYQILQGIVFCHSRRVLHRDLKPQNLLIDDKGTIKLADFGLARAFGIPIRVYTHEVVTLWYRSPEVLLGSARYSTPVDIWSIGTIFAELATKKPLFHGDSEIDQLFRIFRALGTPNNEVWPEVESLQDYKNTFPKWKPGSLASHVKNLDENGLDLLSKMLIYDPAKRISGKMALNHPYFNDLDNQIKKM
Sequence of Cyclin-dependent kinase 1/cyclin B1 (P14635 whole entry, further chain): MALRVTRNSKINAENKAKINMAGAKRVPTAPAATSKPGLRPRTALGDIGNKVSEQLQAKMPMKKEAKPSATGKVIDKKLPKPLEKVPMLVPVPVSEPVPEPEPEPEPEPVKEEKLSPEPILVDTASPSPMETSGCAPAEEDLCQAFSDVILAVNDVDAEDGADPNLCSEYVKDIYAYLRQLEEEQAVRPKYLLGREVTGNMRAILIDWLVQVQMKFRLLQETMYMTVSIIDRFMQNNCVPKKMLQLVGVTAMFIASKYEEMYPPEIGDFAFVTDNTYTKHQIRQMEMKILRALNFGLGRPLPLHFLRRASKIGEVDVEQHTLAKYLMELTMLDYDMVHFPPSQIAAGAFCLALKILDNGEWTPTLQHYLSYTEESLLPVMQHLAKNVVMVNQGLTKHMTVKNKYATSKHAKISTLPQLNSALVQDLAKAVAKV
Sequence of CDK9/cyclin T1 (O60563 whole entry): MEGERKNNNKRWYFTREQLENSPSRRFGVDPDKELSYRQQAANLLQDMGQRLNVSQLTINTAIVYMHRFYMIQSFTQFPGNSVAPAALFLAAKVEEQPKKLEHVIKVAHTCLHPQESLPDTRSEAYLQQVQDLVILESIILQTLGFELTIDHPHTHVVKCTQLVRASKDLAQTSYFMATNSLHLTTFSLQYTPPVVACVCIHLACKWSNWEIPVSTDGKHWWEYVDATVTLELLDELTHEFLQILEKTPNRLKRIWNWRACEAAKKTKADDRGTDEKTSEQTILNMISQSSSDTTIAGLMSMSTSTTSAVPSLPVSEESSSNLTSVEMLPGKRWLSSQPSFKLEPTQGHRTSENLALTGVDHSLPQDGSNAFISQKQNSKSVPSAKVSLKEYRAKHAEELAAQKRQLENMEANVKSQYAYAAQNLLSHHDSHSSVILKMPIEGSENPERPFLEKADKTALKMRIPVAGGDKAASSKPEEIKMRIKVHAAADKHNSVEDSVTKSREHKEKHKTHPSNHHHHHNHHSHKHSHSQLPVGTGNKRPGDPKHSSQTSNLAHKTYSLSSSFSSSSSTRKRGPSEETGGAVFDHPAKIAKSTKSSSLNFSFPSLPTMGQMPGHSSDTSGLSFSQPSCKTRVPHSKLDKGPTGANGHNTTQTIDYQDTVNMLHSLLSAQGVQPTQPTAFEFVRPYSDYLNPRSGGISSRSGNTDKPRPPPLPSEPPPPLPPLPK
Sequence of CDK9/cyclin T1 (P50750 whole entry): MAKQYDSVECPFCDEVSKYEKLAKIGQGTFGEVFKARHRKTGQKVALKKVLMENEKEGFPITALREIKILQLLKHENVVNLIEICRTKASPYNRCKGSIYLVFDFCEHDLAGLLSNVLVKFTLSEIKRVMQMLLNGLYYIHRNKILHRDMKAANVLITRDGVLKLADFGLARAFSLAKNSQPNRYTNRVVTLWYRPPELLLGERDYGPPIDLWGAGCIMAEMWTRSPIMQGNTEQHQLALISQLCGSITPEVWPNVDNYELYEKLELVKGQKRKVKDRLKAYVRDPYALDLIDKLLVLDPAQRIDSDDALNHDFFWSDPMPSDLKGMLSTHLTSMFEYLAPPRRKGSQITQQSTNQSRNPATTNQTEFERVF

| IC50 (K562) | IC50 (CDK2/Cyclin A1) | IC50 (MV4-11 [2]) | inhibition [3] | IC50 (CDK9/cyclin T1) | inhibition [4] | IC50 [6] | IC50 [10] | IC50 [11] | IC50 [12] | inhibition [13] | SMILES | IC50 (CCRF-CEM) | IC50 (MOLM-14 [1]) | IC50 (MOLM-13) | IC50 (BaF3 [5]) | Activity (MV4-11 [7]) | Activity (MV4-11 [8]) | Activity (MV4-11 [9]) | IC50 (SEM cells) | IC50 (U-937) | other results |
| --- | --- | --- | --- | --- | --- | --- | --- | --- | --- | --- | --- | --- | --- | --- | --- | --- | --- | --- | --- | --- | --- |
| 7.23 µM | 0.039 µM | 0.007 µM | Active | 0.538 µM | Active | 0.031 µM | 0.012 µM | > 1 µM | 0.052 µM | inactive | Fc1cc2[nH]ncc2c2c3c(c(-c4c[nH]nc4C(F)(F)F)nc12)CCCC3 | 3.74 µM | 0.028 µM | 0.006 µM | 3.88 µM | Active | Active | Active | 0.18 µM | 2.24 µM | Activity (MV4-11 [14]): Active; IC50 [15]: 0.033 µM; Activity (MV4-11 [16]): Active; IC50 (MOLM-14 [17]): 0.017 µM; IC50 (THP-1): 3.46 µM; IC50 (MOLM-14 [18]): 0.042 µM; IC50 (BaF3 [19]): 0.042 µM; IC50 (CDK2/Cyclin A2): 0.039 µM |
| 9.72 µM | 0.141 µM | 0.03 µM | Active | > 1 µM | Active | 0.032 µM | 0.003 µM | > 1 µM | 0.203 µM | inactive | OCc1n[nH]c2ccc3nc(-c4c[nH]nc4C(F)(F)F)c4c(c3c12)CCCC4 | 5.21 µM | 0.036 µM | 0.018 µM | 16.1 µM | Active | Active | Active | 0.437 µM | 4.82 µM | Activity (MV4-11 [14]): Active; IC50 [15]: 0.102 µM; Activity (MV4-11 [16]): Active; IC50 (MOLM-14 [17]): 0.016 µM; IC50 (THP-1): 16.9 µM; IC50 (MOLM-14 [18]): 0.091 µM; IC50 (BaF3 [19]): 0.124 µM; IC50 (CDK2/Cyclin A2): 0.141 µM |
| 7.59 µM | 0.049 µM | 0.049 µM | Active | 0.98 µM | Active | 0.028 µM | 0.016 µM | > 1 µM | 0.072 µM | inactive | Fc1cc2[nH]ncc2c2c3c(c(-c4c[nH]nc4C(F)(F)F)nc12)C1CCC3C1 (centres undefined) | 8.12 µM | 0.024 µM | 0.006 µM | 5.82 µM | Active | Active | Active | 0.15 µM | 2.24 µM | Activity (MV4-11 [14]): Active; IC50 [15]: 0.031 µM; Activity (MV4-11 [16]): Active; IC50 (MOLM-14 [17]): 0.013 µM; IC50 (THP-1): 3.15 µM; IC50 (MOLM-14 [18]): 0.065 µM; IC50 (BaF3 [19]): 0.035 µM; IC50 (CDK2/Cyclin A2): 0.049 µM |
